Results on 28 compounds are retold here after ChEMBL document CHEMBL1146114, “A new class of bradykinin 1 receptor antagonists containing the piperidine acetic acid tetralin core” (Bioorg Med Chem Lett, 2006).

One may read the IC50 as the midpoint of a concentration-inhibition curve. The clearance is a measure of how efficiently the substance is removed, as volume per time. For orientation: half-life means the time in which the quantity being followed falls by half. Read a low half-life as rapid decline. What is called bioavailability is the share of a dose that reaches the circulation, judged against a reference dose that is usually intravenous. Low values mean little systemic uptake, high ones much systemic uptake.

In series [1] the target is T1, B1 bradykinin receptor (Homo sapiens, UniProt P46663).
T1 sequence (P46663 whole entry): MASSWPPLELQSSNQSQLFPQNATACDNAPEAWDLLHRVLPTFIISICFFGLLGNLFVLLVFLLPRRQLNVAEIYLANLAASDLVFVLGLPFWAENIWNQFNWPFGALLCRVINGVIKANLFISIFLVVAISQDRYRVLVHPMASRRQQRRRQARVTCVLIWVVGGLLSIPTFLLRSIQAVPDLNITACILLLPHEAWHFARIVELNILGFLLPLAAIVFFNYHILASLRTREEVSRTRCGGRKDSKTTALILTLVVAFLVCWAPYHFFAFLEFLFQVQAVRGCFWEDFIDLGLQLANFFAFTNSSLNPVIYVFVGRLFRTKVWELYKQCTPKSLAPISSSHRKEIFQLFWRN
As to the kind of experiment: Inhibition of human B1 receptor by calcium influx functional assay.

The target in series [2] is T1, B1 bradykinin receptor. The series can be described thus: Inhibition of human B1 receptor.
Series [3] can be described thus: Clearance in rat at 1 mg/kg, iv. The class given is ADME, organism-based. Set-up: dose 1 mg/kg, route intravenous. Conditions: in vivo.
The nature of series [4]: Volume of distribution in rat at 1 mg/kg, iv. The class given is ADME, organism-based. Details: dose 1 mg/kg, route intravenous. Conditions: in vivo, read-out: Vss.
Series [5] can be described thus: Half life in rat at 1 mg/kg, iv. Details: dose 1 mg/kg, route intravenous. In kind it is ADME, organism-based. Particulars: in vivo.
Series [6] in a line: Oral bioavailability in rat at 10 mg/kg, po. The class given is ADME, organism-based. Conditions: in vivo.

`CC(C)(C)NCc1ccc2c(c1)CCC[C@H]2NC(=O)C[C@@H]1CCCCN1S(=O)(=O)c1cccc2cccnc12`: the values for the IC50 at B1 bradykinin receptor [1] and against B1 bradykinin receptor [2] were 440 nM and 220 nM, respectively.
For `Cc1ccc(S(=O)(=O)N2CCCC[C@H]2CC(=O)N[C@@H]2CCCc3cc(CNC(C)(C)C)ccc32)cc1C(F)(F)F`, the IC50 came to 16 nM at B1 bradykinin receptor [1] and 11 nM on B1 bradykinin receptor [2].
For `Cc1ccc(S(=O)(=O)N2CCCC[C@H]2CC(=O)N[C@@H]2CCCc3cc(CNC(C)(C)C)ccc32)cc1Cl` the same measures were 22 nM and 15 nM.
The like results for `CC(C)(C)NCc1ccc2c(c1)OCC[C@H]2NC(=O)C[C@@H]1CCCN1S(=O)(=O)c1cccc(C(F)(F)F)c1` were, in that order, 960 nM and 1500 nM.
For `CC(C)(C)NCc1ccc2c(c1)CCC[C@H]2NC(=O)C[C@@H]1CCCCN1S(=O)(=O)c1ccc(C(F)(F)C(F)(F)F)cc1` the same measures were 210 nM and 360 nM.
For the compound `CC(C)(C)NCc1ccc2c(c1)CCC[C@H]2NC(=O)C[C@@H]1CCCCN1S(=O)(=O)c1ccc(-c2ccccc2)cc1`, the IC50 on B1 bradykinin receptor [1] was 540 nM; against B1 bradykinin receptor [2], 690 nM.
The like results for `Cc1ccc(S(=O)(=O)N2CCCC[C@H]2CC(=O)N[C@@H]2CCCc3cc(CNC(C)(C)C)ccc32)cc1` were, in that order, 130 nM and 93 nM.
In the case of `CC(C)(C)NCc1ccc2c(c1)OCC[C@H]2NC(=O)C[C@@H]1CCCCN1S(=O)(=O)c1cccc(C(F)(F)F)c1`, the figures for the IC50 on B1 bradykinin receptor [1] and against B1 bradykinin receptor [2] were 95 nM and 160 nM, respectively.
`O=C(C[C@@H]1CCCCN1S(=O)(=O)c1cccc(C(F)(F)F)c1)N[C@@H]1CCCc2cc(CNC3CC3)ccc21`: the IC50 was found to be 47 nM at B1 bradykinin receptor [1] and 48 nM against B1 bradykinin receptor [2].
The like results for `O=C(C[C@@H]1CCCCN1S(=O)(=O)c1cccc(C(F)(F)F)c1)N[C@@H]1CCCc2cc(CNC3CCC3)ccc21` were, in that order, 54 nM and 58 nM.
In the case of `CC(C)(C)NCc1ccc2c(c1)CCC[C@H]2NC(=O)C[C@@H]1CCCCN1S(=O)(=O)c1cccc(Cl)c1`, the IC50 at B1 bradykinin receptor [1] was 73 nM; against B1 bradykinin receptor [2], 120 nM.
For `CC(C)(C)NCc1ccc2c(c1)CCC[C@H]2NC(=O)C[C@@H]1CCCCN1S(=O)(=O)c1cccc2nsnc12` the same measures were 180 nM and 150 nM.
The like results for `O=C(C[C@@H]1CCCCN1S(=O)(=O)c1cccc(C(F)(F)F)c1)N[C@@H]1CCCc2cc(CNCC(F)(F)F)ccc21` were, in that order, 700 nM and 1900 nM.
The like results for `CC(C)(C)NCc1ccc2c(c1)CCC[C@H]2NC(=O)C[C@@H]1CCCCN1S(=O)(=O)c1cccc2cnccc12` were, in that order, 4300 nM and 610 nM.
For `CC(C)(C)CNCc1ccc2c(c1)CCC[C@H]2NC(=O)C[C@@H]1CCCCN1S(=O)(=O)c1cccc(C(F)(F)F)c1`, the results for the IC50 on B1 bradykinin receptor [1] and against B1 bradykinin receptor [2] were 230 nM and 59 nM, respectively.
`CC(C)CNCc1ccc2c(c1)CCC[C@H]2NC(=O)C[C@@H]1CCCCN1S(=O)(=O)c1cccc(C(F)(F)F)c1`: the half-maximal inhibitory concentration (IC50) on B1 bradykinin receptor [1] is 42 nM; against B1 bradykinin receptor [2] it was 13 nM.
The like results for `COc1ccc(S(=O)(=O)N2CCCC[C@H]2CC(=O)N[C@@H]2CCCc3cc(CNC(C)(C)C)ccc32)cc1` were, in that order, 1400 nM and 780 nM.
As to `CC(C)(C)NCc1ccc2c(c1)CCC[C@H]2NC(=O)C[C@@H]1CCCCN1S(=O)(=O)c1ccccc1`, the IC50 on B1 bradykinin receptor [1] came to 2400 nM; at B1 bradykinin receptor [2], 1700 nM.
The like results for `CC(C)(C)NCc1ccc2c(c1)CCC[C@H]2NC(=O)C[C@@H]1CCCCN1S(=O)(=O)c1ccc(Cl)cc1` were, in that order, 810 nM and 560 nM.
The like results for `O=C(C[C@@H]1CCCCN1S(=O)(=O)c1cccc(C(F)(F)F)c1)N[C@@H]1CCCc2cc(CNCC3CC3)ccc21` were, in that order, 31 nM and 16 nM.
`CCCCOc1ccc(S(=O)(=O)N2CCCC[C@H]2CC(=O)N[C@@H]2CCCc3cc(CNC(C)(C)C)ccc32)cc1`: the IC50 on B1 bradykinin receptor [1] is 590 nM; against B1 bradykinin receptor [2], 1200 nM.
In turn, `CC(C)(C)NCc1ccc2c(c1)CCC[C@H]2NC(=O)C[C@@H]1CCCCN1S(=O)(=O)c1cccc(C(F)(F)F)c1` showed a clearance in series [3] of 36.7 mL/min/kg. Besides, the Vd in series [4] stood at 5.4 L/kg. The compound further showed a half-life in series [5] of 2 h. This compound had a bioavailability in series [6] of 19%.
For the compound `CC(C)(C)NCc1ccc2c(c1)CCC[C@H]2NC(=O)C[C@@H]1CCCCN1S(=O)(=O)c1csc2ccccc12`, the IC50 on B1 bradykinin receptor [1] is 66 nM; on B1 bradykinin receptor [2], 14 nM.
The like results for `Cn1cnc(S(=O)(=O)N2CCCC[C@H]2CC(=O)N[C@@H]2CCCc3cc(CNC(C)(C)C)ccc32)c1` were, in that order, above 40000 nM and above 100000 nM.
The like results for `O=C(C[C@@H]1CCCCN1S(=O)(=O)c1cccc(C(F)(F)F)c1)N[C@@H]1CCCc2cc(CN3CCC3)ccc21` were, in that order, 4300 nM and 1100 nM.
Turning to `COCCNCc1ccc2c(c1)CCC[C@H]2NC(=O)C[C@@H]1CCCCN1S(=O)(=O)c1cccc(C(F)(F)F)c1`, the IC50 at B1 bradykinin receptor [1] amounted to 46 nM; against B1 bradykinin receptor [2], 21 nM.
For `CC(C)NCc1ccc2c(c1)CCC[C@H]2NC(=O)C[C@@H]1CCCCN1S(=O)(=O)c1cccc(C(F)(F)F)c1` the same measures were 110 nM and 72 nM.
Regarding `CN(C)Cc1ccc2c(c1)CCC[C@H]2NC(=O)C[C@@H]1CCCCN1S(=O)(=O)c1cccc(C(F)(F)F)c1`, the IC50 on B1 bradykinin receptor [1] worked out at 160 nM; against B1 bradykinin receptor [2] it was 62 nM.
